# Measurements taken from publication PMC3570474, “Biochemical Characterization of Uracil Phosphoribosyltransferase from Mycobacterium tuberculosis” (PLoS ONE, 2013).
# “And” between values parts separate entries of the source, which are not always exact repeats. Identical values can stand only once.
# B1: Uracil phosphoribosyltransferase from Mycobacterium tuberculosis (enzyme)
# chain: MQVHVVDHPLAAARLTTLRDERTDNAGFRAALRELTLLLIYEATRDAPCEPVPIRTPLAETVGSRLTKPPLLVPVLRAGLGMVDEAHAALPEAHVGFVGVARDEQTHQPVPYLDSLPDDLTDVPVMVLDPMVATGGSMTHTLGLLISRGAADITVLCVVAAPEGIAALQKAAPNVRLFTAAIDEGLNEVAYIVPGLGDAGDRQFGPR
# notes: also called MtUPRT; UPRT
# Experiments:
# MtUPRT [1] = target: T1, MtUPRT (Mycobacterium tuberculosis, UniProt P9WFF3); assay: Evaluation of nucleotides as allosteric effectors; type: biochemical; settings: for activation or inhibition of MtUPRT: 500 µM nucleotide, 128 s
# S. solfataricus UPRT = system: S. solfataricus UPRT; parameters: method as in PMID 15752360; settings: cited from earlier work
# [2] = target: MtUPRT:PRPP binary complex (Mycobacterium tuberculosis, UniProt P9WFF3); assay: Isothermal titration calorimetry of GTP binding to PRPP bound enzyme; settings: 10 mM GTP titrated; MtUPRT 139 µM incubated with 100 µM PRPP for 1 hour
# Method: Furthermore, no binding of GTP either to the free enzyme or to the PRPP bound enzyme was detected by ITC (data not shown). The incubation of PRPP with MtUPRT prior to the titration of GTP was tested to determine whether the binding of PRPP to MtUPRT generates conformational changes on the enzyme that could enable GTP binding. However, no binding of GTP to MtUPRT:PRPP binary complex could be detected (data now shown).
# ITC experiments were carried out using an iTC200 Microcalorimeter (MicroCal Inc). Ligands and enzyme were prepared in 100 mM Hepes pH 7.5 containing 10 mM MgCl2. For direct titrations the sample cell was filled with 139 µM of MtUPRT (200 µL) and titrated (39.7 µL) with different concentrations of either substrates or products: 200 µM of uracil, 500 µM of PRPP, 500 µM of UMP, and 350 µM of PPi. In addition, titration was performed with 10 mM of GTP and the sample cell was filled with either free MtUPRT (139 µM) or MtUPRT (139 µM) incubated with 100 µM PRPP for 1 hour before starting the measurements. Reverse titrations were also carried out where the sample cell was filled with either 90 µM of PRPP or 150 µM of UMP and titrated with 633 µM of UPRT.
# A stirring speed of 500 rpm and a temperature of 25°C were employed for all ITC experiments. […] The experimental data were evaluated using the Origin 7 SR4 software (MicroCal).
# E. coli UPRT = system: E. coli UPRT; parameters: method as in PMID 8856065; settings: without affecting V max; cited from earlier work
# MtUPRT [3] = target: T1, MtUPRT; assay: biochemical; type: binding; settings: for Kd: K d; for ΔG / ΔH / ΔS: reverse titration, 25°C
# UPRT from T. gondii = system: UPRT from T. gondii; parameters: method as in PMID 11773618; settings: also stabilizes the more active tetrameric form; cited from earlier work
# MtUPRT [4] = target: T1, MtUPRT; assay: Steady-state kinetics of MtUPRT, continuous spectrophotometric assay (uracil to UMP, 280 nm); type: biochemical; settings: for k cat/K (true steady-state) / true steady-state K (K PRPP, K uracil): initial velocity pattern, varying PRPP at fixed-varying uracil; for true steady-state K (K PRPP, K uracil): sequential mechanism fit
# G. intestinalis UPRT = system: G. intestinalis UPRT; parameters: method as in PMID 7622327; settings: cited from earlier work
# MtUPRT [5] = target: T1, MtUPRT; assay: Evaluation of pyrimidine bases as substrates, discontinuous assay (HPLC, LC-ESI-MS/MS); type: biochemical; settings: 0.1 mM base, 1 mM PRPP, 37°C 30 min, confirmed by LC-ESI-MS/MS
# Method: Uracil, thymine and cytosine pyrimidine bases were evaluated as possible MtUPRT substrates. The bases were added to MtUPRT reaction mixtures and protein separated by ultrafiltration, and product formation analyzed by HPLC monitoring absorbance at 254, 260, and 280 nm. […] The MtUPRT enzyme activity measurements henceforth described were carried out using uracil as substrate and a continuous spectrophotometric assay.
# Reaction mixtures containing 50 mM Tris pH 7.8, 10 mM MgCl2, 1 mM PRPP, and 0.1 mM of the pyrimidine base to be tested (uracil, cytosine, or thymine) were initiated by the addition of 54 nM of homogeneous MtUPRT. The reactions were incubated at 37°C for 30 min and then boiled for 3 min to stop the reaction. The mixtures were passed through a Centricon (10,000 Da molecular weight cut off) to remove the protein content prior to analysis. The nucleotide contents of the samples were analyzed using an HPLC Äkta Purifier system and a Sephasil peptide C18 5 µm ST 4.6/250 column. A 500 µL aliquot of each sample was loaded on the column and adsorbed material isocratically eluted with 5 mM potassium phosphate pH 4.0 containing 5% acetonitrile for 10 min at 1 mL min^−1flow rate. Nucleotides and bases were monitored at 254, 260, and 280 nm.
# Another method used to analyze the nucleotide content was the LC-ESI-MS/MS. This experiment was employed to confirm results obtained in the analysis described above. The chromatography was carried out with an Eclipse plus C18 4.6/150 column (Agilent). The injected sample volume was 20 µL, which was eluted isocratically with 10 mM ammonium acetate containing 40% acetonitrile at 0.8 ml min^−1 flow rate. The LC detector was an ESI coupled to the 3200 Q-Trap (Applied Biosystems MDS SCIEX), employing the ESI-MS/MS parameters as described by others. During the chromatography run, precursor ion scan (Prec) and enhance product ion scan (EPI) were monitored. Prec monitored precursors of mass over charge ratio (m/z) of compounds containing a phosphate group (H2PO4 ^−, m/z 97) and EPI gave the fragmentation spectra of the nucleotides m/z.
# B. caldolyticus UPRT = system: B. caldolyticus UPRT; parameters: method as in PMID 9268683; settings: hyperbolic saturation curve; cited from earlier work
# AUC = target: the molecule itself; assay: AUC
# [6] = PRPP variable substrate, fixed-saturating uracil 35 µM
# [7] = in the presence of 100 µM GTP, PRPP variable substrate, uracil 35 µM
# [8] = in the presence of 100 µM GTP, uracil variable substrate, PRPP 350 µM
# [9] = uracil variable substrate, fixed-saturating PRPP 350 µM
molecule,measurement,setting,value
"Nc1ncnc2c1ncn2[C@@H]1O[C@H](COP(=O)(O)OP(=O)(O)OP(=O)(O)O)[C@@H](O)[C@H]1O [ATP, adenosine 5′-triphosphate]",activation or inhibition of MtUPRT,"MtUPRT [1]; 350 µM PRPP, 35 µM uracil",not significantly activated or inhibited
"Nc1ccn([C@@H]2O[C@H](COP(=O)(O)OP(=O)(O)OP(=O)(O)O)[C@@H](O)[C@H]2O)c(=O)n1 [CTP, cytidine 5′-triphosphate]",effect of CTP on activity,S. solfataricus UPRT; in the presence of UMP,inhibited the enzyme
same,effect on UMP inhibition of MtUPRT,MtUPRT [1]; 500 µM CTP together with 100 µM UMP,no increase in UMP inhibition occurred
same,activation or inhibition of MtUPRT,"MtUPRT [1]; 350 µM PRPP, 35 µM uracil",not significantly activated or inhibited
"Nc1nc2c(ncn2[C@@H]2O[C@H](COP(=O)(O)OP(=O)(O)OP(=O)(O)O)[C@@H](O)[C@H]2O)c(=O)[nH]1 [GTP, guanosine 5′-triphosphate]",effect of GTP on k cat and K M for PRPP and uracil,S. solfataricus UPRT,increase k cat and K M values
same,activation or inhibition of MtUPRT,"MtUPRT [1]; 350 µM PRPP, 35 µM uracil",not significantly activated or inhibited
same,binding to MtUPRT:PRPP binary complex,[2],no binding
same,effect of GTP on kinetic parameters,E. coli UPRT,lowered the K M value for PRPP
same,binding to free MtUPRT enzyme (heat changes),MtUPRT [3],no binding
same,effect of GTP on activity,UPRT from T. gondii,activated by GTP
same,effect on kinetic parameters for MtUPRT,MtUPRT [4]; 100 µM GTP,not affected
same,effect of GTP on activity,G. intestinalis UPRT,dramatic increase in the activity
"O=P(O)(O)OP(=O)(O)O [PPi, pyrophosphate]",binding to free MtUPRT enzyme (heat changes),MtUPRT [3],no significant heat changes
"O=P(O)(O)OC[C@H]1O[C@H](OP(=O)(O)OP(=O)(O)O)[C@H](O)[C@@H]1O [PRPP, 5-phosphoribosyl-α-1-pyrophosphate]",Kd,MtUPRT [3],5 µM and 48 µM and 6 µM and 9 µM
same,ΔG,MtUPRT [3]; Subunit 1,-7 ± 1 kcal/mol
same,ΔH,MtUPRT [3]; Subunit 1,2.8 ± 0.3 kcal/mol
same,ΔS,MtUPRT [3]; Subunit 1,34±6 cal mol^−1 deg^−1
same,ΔG,MtUPRT [3]; Subunit 2,-6 ± 2 kcal/mol
same,ΔH,MtUPRT [3]; Subunit 2,-3 ± 16 kcal/mol
same,ΔS,MtUPRT [3]; Subunit 2,10±3 cal mol^−1 deg^−1
same,ΔG,MtUPRT [3]; Subunit 3,-7 ± 2 kcal/mol
same,ΔH,MtUPRT [3]; Subunit 3,-41 ± 32 kcal/mol
same,ΔS,MtUPRT [3]; Subunit 3,−114±33 cal mol^−1 deg^−1
same,ΔG,MtUPRT [3]; Subunit 4,-7 ± 3 kcal/mol
same,ΔH,MtUPRT [3]; Subunit 4,58 ± 22 kcal/mol
same,ΔS,MtUPRT [3]; Subunit 4,217±85 cal mol^−1 deg^−1
same,K a,MtUPRT [3]; pH 7.5,2.0 (±3.6)×10^5 M^−1 and 2.1 (±0.6)×10^4 M^−1 and 1.6 (±0.5)×10^5 M^−1 and 1.1 (±0.4)×10^5 M^−1
same,apparent V max,MtUPRT [4]; [6],1.75±0.02 U mg^−1
same,apparent k cat,MtUPRT [4]; [6],0.65 ± 0.01 s⁻¹
same,apparent K M,"MtUPRT [4]; PRPP variable substrate, fixed-saturating uracil 35 µM, Michaelis-Menten fit",12.4 ± 0.6 µM
same,apparent K M,MtUPRT [4]; [7],17 ± 2 µM
same,apparent V max,MtUPRT [4]; [7],1.60±0.04 U mg^−1
same,apparent k cat,MtUPRT [4]; [7],0.59 ± 0.01 s⁻¹
same,k cat/K (true steady-state),MtUPRT [4],4.1 (±0.2)×10^4 M^−1 s^−1
same,"true steady-state K (K PRPP, K uracil)",MtUPRT [4],14 ± 1 µM
"O=c1ccn([C@@H]2O[C@H](COP(=O)(O)O)[C@@H](O)[C@H]2O)c(=O)[nH]1 [UMP, uridine 5′-monophosphate]",inhibition of MtUPRT,"MtUPRT [1]; 100 µM UMP, 350 µM PRPP, 35 µM uracil",enzyme inhibition was observed
same,Kd,MtUPRT [3],7 µM and 8 µM and 13 µM and 14 µM
same,ΔG,MtUPRT [3]; Subunit 1,-7 ± 2 kcal/mol
same,ΔH,MtUPRT [3]; Subunit 1,-5.1 ± 0.4 kcal/mol
same,ΔS,MtUPRT [3]; Subunit 1,5±1 cal mol^−1 deg^−1
same,ΔG,MtUPRT [3]; Subunit 2,-7 ± 2 kcal/mol
same,ΔH,MtUPRT [3]; Subunit 2,6 ± 3 kcal/mol
same,ΔS,MtUPRT [3]; Subunit 2,45±16 cal mol^−1 deg^−1
same,ΔG,MtUPRT [3]; Subunit 3,-7 ± 3 kcal/mol
same,ΔH,MtUPRT [3]; Subunit 3,-24 ± 11 kcal/mol
same,ΔS,MtUPRT [3]; Subunit 3,−56±21 cal mol^−1 deg^−1
same,ΔG,MtUPRT [3]; Subunit 4,-7 ± 2 kcal/mol
same,ΔH,MtUPRT [3]; Subunit 4,28 ± 18 kcal/mol
same,ΔS,MtUPRT [3]; Subunit 4,117±43 cal mol^−1 deg^−1
"O=c1ccn([C@@H]2O[C@H](COP(=O)(O)OP(=O)(O)OP(=O)(O)O)[C@@H](O)[C@H]2O)c(=O)[nH]1 [UTP, uridine 5′-triphosphate]",activation or inhibition of MtUPRT,"MtUPRT [1]; 350 µM PRPP, 35 µM uracil",not significantly activated or inhibited
Nc1cc[nH]c(=O)n1 [cytosine],substrate activity (product formation),MtUPRT [5],no product formation could be detected
Cc1c[nH]c(=O)[nH]c1=O [thymine],substrate activity (product formation),MtUPRT [5],no product formation could be detected
O=c1cc[nH]c(=O)[nH]1 [uracil],substrate activity (product formation),MtUPRT [5],specific for uracil
same,binding to free MtUPRT enzyme (heat changes),MtUPRT [3],no significant heat changes
same,K 0.5,MtUPRT [4]; [8],2.9 ± 0.1 µM
same,apparent V max,MtUPRT [4]; [8],1.54±0.02 U mg^−1
same,apparent k cat,MtUPRT [4]; [8],0.57 ± 0.01 s⁻¹
same,n (Hill coefficient),MtUPRT [4]; [8],2.2±0.1
same,k cat/K (true steady-state),MtUPRT [4],2.2 (±0.3)×10^5 M^−1 s^−1
same,"true steady-state K (K PRPP, K uracil)",MtUPRT [4],2.6 ± 0.4 µM
same,apparent V max,MtUPRT [4]; [9],1.73±0.03 U mg^−1
same,apparent k cat,MtUPRT [4]; [9],0.64 ± 0.01 s⁻¹
same,n (Hill coefficient),MtUPRT [4]; [9],1.9±0.1
same,K 0.5,"MtUPRT [4]; uracil variable substrate, fixed-saturating PRPP 350 µM, Hill fit",3.6 ± 0.1 µM
same,K M for uracil,B. caldolyticus UPRT,2 µM
B1,Kd,AUC,~1 µM
same,stoichiometry N,AUC,4
